Test results as given in PubChem BioAssay (NCI).
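These data come from cells grown in 96-well plates and exposed to compound for 48 hours at five concentrations. GI50: concentration for 50% inhibition of growth. TGI: total growth inhibition.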

Experiments:
Assay in all cases: DTP human tumour cell line panel, 48 h
786-0 renal = tested on: 786-0 renal
CCRF-CEM leukemia = tested on: CCRF-CEM leukemia
DU-145 prostate = tested on: DU-145 prostate
HCT-116 colon = tested on: HCT-116 colon
HCT-15 colon = tested on: HCT-15 colon
HOP-92 NSCLC = tested on: HOP-92 NSCLC
KM12 colon = tested on: KM12 colon
NCI-H226 lung = tested on: NCI-H226 lung
NCI-H23 lung = tested on: NCI-H23 lung
SK-MEL-28 melanoma = tested on: SK-MEL-28 melanoma
UO-31 renal = tested on: UO-31 renal

Structure (SMILES)	TGI (786-0 renal) [µM]	TGI (CCRF-CEM leukemia) [µM]	TGI (DU-145 prostate) [µM]	TGI (HCT-116 colon) [µM]	TGI (HCT-15 colon) [µM]	TGI (HOP-92 NSCLC) [µM]	TGI (KM12 colon) [µM]	TGI (NCI-H226 lung) [µM]	TGI (NCI-H23 lung) [µM]	TGI (SK-MEL-28 melanoma) [µM]	TGI (UO-31 renal) [µM]	GI50 (CCRF-CEM leukemia) [µM]	GI50 (NCI-H226 lung) [µM]
Cc1ccc(SC[C@@]2(C(F)F)NC(=O)NC2=O)cc1	> 100	> 100	> 100	> 100	> 100	> 100	> 100	> 100	> 100	> 100	> 100	–	–
Cn1c2c(c3ccccc31)CCN1C(=O)C3SC21C1C(=O)N(c2ccccc2)C(=O)C31 (centres undefined)	> 100	> 100	> 100	> 100	> 100	> 86.7	> 100	> 100	> 100	> 100	> 100	53.4	–
O=S1(=O)C(c2ccccc2)=C(O)c2ccccc21	> 100	> 100	> 100	> 100	> 100	> 100	> 100	> 100	> 100	> 100	> 100	–	–
O=c1[nH]cnc2sc(=S)c3c(c12)CCC3	33.3	49	> 100	> 100	91.4	66.3	> 100	72.7	62.8	> 100	> 100	–	–
Cc1cc(O)ccc1C1(c2ccc(F)cc2)OC(=O)c2ccccc21 (centres undefined)	22.2	> 95.5	16.1	12.6	12.4	12.5	7.3	8.28	3.27	25.8	16.1	–	–
CCOC(=O)/C(C#N)=C(/NNc1ccccc1)c1ccncc1C(=O)O	> 100	> 100	> 100	> 100	> 100	> 100	> 100	> 100	> 100	> 100	> 100	–	–
S=C(N/N=C\c1ccccn1)N(Cc1ccccn1)Cc1ccccn1	13.3	> 100	19.7	16.5	> 43.2	11.4	23.5	1.78	14.5	> 49.7	7.87	–	–
CSc1nc(C#N)c(N)n1C	> 100	> 100	> 100	> 100	> 100	> 100	> 100	> 100	> 100	> 100	> 100	–	–
CSc1ncc2c(n1)-c1ccccc1OC2NC(C)(C)C (centres undefined)	> 100	> 100	> 100	> 100	> 100	> 100	> 100	> 100	> 100	> 100	> 100	–	–
CN(C)C(=O)C(F)(F)C(c1ccc(Br)cc1)C1C(=O)N(C)C(=O)N(C)C1=O (centres undefined)	> 100	> 100	> 100	> 100	> 100	> 100	> 100	> 100	> 100	> 100	> 100	–	–
OC(CCN1CCN(CCOC(c2ccccc2)c2ccccc2)CC1)c1ccc(Br)cc1 (centres undefined)	22.8	45.3	32.4	23.3	19.3	25.1	36.9	37.6	28	22.8	4.77	–	–
Clc1nc(Nc2nc3ccccc3[nH]2)nc(Cl)c1Cc1ccccc1	> 100	> 100	> 100	> 100	> 100	70.9	> 100	> 100	> 100	> 100	> 100	–	–
CCOC(=O)c1c(N2CCOCC2)[nH]c(=O)c(C(c2cccs2)c2c(O)c(C(=O)OCC)c(N3CCOCC3)[nH]c2=O)c1O	> 100	> 100	> 100	> 100	> 100	> 100	> 100	> 100	> 100	> 100	> 100	–	–
CC1(C)CCCCCCCCCC(C)(CCCCCCCCCCCCO)C1=O (centres undefined)	32.6	50.7	32	31.7	55	31.7	31.1	22.5	33.7	32.6	32.1	–	–
COc1cc(/C=C2\Cc3cc(OC)c(OC)cc3C2=O)cc(OC)c1	> 56.6	> 100	> 100	> 52.2	> 100	> 57.5	> 100	> 100	> 56.9	> 100	> 100	–	–
COc1ccc(/C(=N/Nc2nc3ccccc3[nH]2)C(=O)O)cc1	> 100	> 100	> 100	> 100	> 100	> 100	> 100	> 100	> 100	> 100	> 100	–	–

Structure (SMILES)	TGI (786-0 renal) [µM]	TGI (CCRF-CEM leukemia) [µM]	TGI (DU-145 prostate) [µM]	TGI (HCT-116 colon) [µM]	TGI (HCT-15 colon) [µM]	TGI (HOP-92 NSCLC) [µM]	TGI (KM12 colon) [µM]	TGI (NCI-H226 lung) [µM]	TGI (NCI-H23 lung) [µM]	TGI (SK-MEL-28 melanoma) [µM]	TGI (UO-31 renal) [µM]	GI50 (CCRF-CEM leukemia) [µM]	GI50 (NCI-H226 lung) [µM]
Oc1nc(N/N=C/c2ccccc2)[nH]c1/C=C1\C=Nc2ccccc21	> 100	74.3	> 100	> 100	> 100	> 100	> 100	> 100	> 100	> 100	> 100	–	–
C=CC(C)(C)c1cc([C@@H]2COc3cc(O)ccc3C2=O)c(O)c(O)c1OC	31.6	> 100	46.2	32.6	32	49.4	40.7	> 100	34	67.2	35.4	–	–
Nc1ccc(-c2nc3ccc(F)cc3s2)cc1	> 100	> 100	98.6	> 100	> 100	> 100	64.3	> 100	> 100	> 100	> 100	–	47
O=C(/C=C(\O)c1ccccc1)/C(=C/C(=O)c1ccccc1)NN=C(c1ccccc1)c1ccccc1	> 100	54.7	> 100	> 100	> 100	> 100	> 100	72.7	79.9	> 100	> 100	–	–
Cc1nn(C)c2nc3ccc(Cl)cc3c(-c3ccccc3)c12	> 100	> 100	> 100	> 100	> 100	> 100	> 100	> 100	> 100	> 100	> 100	–	–
N#CC12C(=O)N3C(=NC(c4ccccc4)NC3c3ccccc3)C1(C#N)C(c1ccccc1)NC1=C2CCCC1 (centres undefined)	> 100	77.8	> 100	> 100	> 100	> 100	> 100	> 100	> 100	> 100	> 100	–	–
ONC1=Nc2ccccc2OCc2cc(Br)c(Br)cc2COc2ccccc2N=C1NO	> 44.3	> 34.1	29.3	32.9	> 44.4	32	> 46	> 52.7	44.5	> 57.5	> 54.4	–	–
CC(C)(C)c1cc(C(=O)/C=C/c2ccn[nH]2)cc(C(C)(C)C)c1O	3.05	5.97	7.52	6.11	4.71	5.53	5.35	11.6	7.38	11.7	3.23	–	–
CC(NNC(=O)c1ccncc1)c1ccc(Cl)c(Cl)c1 (centres undefined)	> 100	> 100	> 100	> 100	> 100	> 100	> 100	> 100	> 100	> 100	> 100	–	–
CN(CCc1ccc(Cl)c(Cl)c1)CCN(C)CCN1CCCC1	21.9	14.6	86.4	18.7	38.4	16	24.8	38.5	38.3	3.34	17.2	–	–
c1csc(-c2csc(-c3ccsc3)c2)c1	> 100	> 100	> 100	> 100	> 100	> 100	> 100	> 100	> 100	> 100	> 100	–	–
Cc1c(C#N)c2nnn(-c3ccccc3)c(=O)n2c1-c1ccccc1	30.1	> 20.7	8.45	13.2	> 100	> 100	29.1	> 100	> 77.6	> 100	> 100	–	–
COc1ccc2c(-c3ccc(OCCN(C)C)cc3)c(Oc3ccc(Cl)cc3)c(=O)oc2c1	6.32	23.1	32.7	8.49	15.5	32.5	25.1	> 55.7	> 54.2	3.57	11.9	–	–
COc1cc([C@H]2Oc3c(OC)cc(CCCO)cc3[C@@H]2CO)ccc1O	> 100	> 100	> 100	> 100	> 100	> 100	> 100	> 100	> 100	> 100	> 100	–	–
CC(=O)CC(C)(C)NC(=O)[C@@]1(O)CC[C@H]2[C@@H]3CCC4=CC(=O)CC[C@@H]4[C@H]3CC[C@@]21C	> 100	> 100	> 100	> 100	> 100	> 100	> 100	> 100	> 100	> 100	> 100	–	–
CN(C)Cc1cc(C(=O)/C=C/c2cccc(Cl)c2)cc(CN(C)C)c1O	15.7	8.25	19.2	13.3	12.7	18.2	19.7	19.6	37.9	17.1	19.5	–	–
